Assay results reported in patent US20130109646A1, “METHOD FOR TREATING GLAUCOMA OR OCULAR HYPERTENSION WITH AN ADENOSINE DERIVATIVE” (priority 2007, published 2013).

Columns and labels:
[1] = test system: intraocular pressure; test: Test for intraocular pressure reduction using cynomolgus monkeys; format: in vivo; conditions: male cynomolgus monkeys; for Maximum intraocular pressure reduction degree: 0.1% (w/v) test liquid instilled into one eye twice a day for 7 days, maximum over 2, 4, 6, 8 h after administration (Compound B: pH 7, 1, 2, 4, 6 h), average of 5 to 6 cases
Description: In order to examine the usefulness of the present compound as a preventive or therapeutic agent for glaucoma or ocular hypertension, an intraocular pressure lowering effect when the present compound was administered to cynomolgus monkeys (sex: male) was evaluated and studied. As the test compound, Compound A, Compound B, Compound C, Compound D, Compound E, Compound F, Compound G, Compound H and Compound I were used.
1) Just before a test liquid was administered, one drop of 0.4% oxybuprocaine hydrochloride eye drop was instilled into both eyes of each experimental animal to achieve local anesthesia, and the intraocular pressure was measured using an applanation tonometer. This intraocular pressure was determined as an initial intraocular pressure.
2) A 0.1% (w/v) test liquid (a solution or suspension) was prepared, and the test liquid was instilled into one eye of each experimental animal twice a day for 7 days. The other eye was left untreated, or a vehicle was instilled into the eye according to the same schedule. Incidentally, the test liquid was prepared according to the preparation method for an eye drop described above. Specifically, to 10 mM phosphate buffer or 1.7% borate buffer, polysorbate 80 and any of the test compounds were added and dissolved or dispersed therein. Then, the pH of the resulting solution or dispersion was adjusted to 5 with sodium hydroxide and/or dilute hydrochloric acid, whereby a test liquid containing each test compound was prepared (only in the case of Compound B, the pH of the test liquid was adjusted to 7).
3) After the test liquid was administered, the intraocular pressure of both eyes of each experimental animal was measured at predetermined times (at 2, 4, 6, and 8 hours after administration) (only in the case of Compound B, the intraocular pressure was measured at 1, 2, 4 and 6 hours after administration). Incidentally, before measurement, one drop of 0.4% oxybuprocaine hydrochloride eye drop was instilled into both eyes of each experimental animal to achieve local anesthesia.
The intraocular pressure reduction degree of each test compound administration group at each measurement time was calculated from the following calculation formula. Among the obtained intraocular pressure reduction degrees at respective measurement times, the maximum value was determined as a maximum intraocular pressure reduction degree.
Intraocular pressure reduction degree(mmHg)=|IOP (D−t)−IOP(D−0)| Equation 1
IOP (D-t): Intraocular pressure of the eye into which the test compound was administered at t hours after administration of test compound IOP (D-0): Initial intraocular pressure of the eye into which the test compound was administered

[2] = test system: intraocular pressure; test: Test for intraocular pressure reduction using Japanese white rabbits; format: in vivo; conditions: male Japanese white rabbits; for Intraocular pressure reduction degree: single dose into one eye, at 2 or 4 hours after instillation at which the pressure decreased most, average of 5 to 6 cases; for intraocular pressure lowering action (in words): single instillation, 0.003 to 0.2% (w/v) depending on compound
Description: In order to examine the usefulness of the present compound as a preventive or therapeutic agent for glaucoma or ocular hypertension, an intraocular pressure lowering effect when the present compound was administered to Japanese white rabbits (sex: male) was evaluated and studied. As the test compound, Compound A, Compound B, Compound C, Compound E, Compound I and Compound J were used. According to the preparation method for an eye drop described above, each test liquid containing Compound A (0.003% (w/v)), Compound B (0.2% (w/v)), Compound C (0.01% (w/v)), Compound E (0.01% (w/v)), Compound I (0.01% (w/v)) or Compound J (0.01% (w/v)) was prepared. Specifically, to 10 mM phosphate buffer or 1.7% borate buffer, polysorbate 80 and any of the test compounds were added and dissolved or dispersed therein. Then, the pH of the resulting solution or dispersion was adjusted to 5 with sodium hydroxide and/or dilute hydrochloric acid, whereby a test liquid containing each test compound was prepared (only in the case of Compound B, the pH of the test liquid was adjusted to 7). 1) Just before any of the test liquids was administered, one drop of 0.4% oxybuprocaine hydrochloride eye drop was instilled into both eyes of each experimental animal to achieve local anesthesia, and the intraocular pressure was measured using an applanation tonometer. This intraocular pressure was determined as an initial intraocular pressure. 2) Any of the prepared test liquids was administered into one eye of each experimental animal in a single dose. The other eye was left untreated, or a vehicle was instilled into the eye according to the same schedule. 3) After the test liquid was administered, the intraocular pressure of both eyes of each experimental animal was measured at predetermined times (at […] after administration). Incidentally, before measurement, one drop of 0.4% oxybuprocaine hydrochloride eye drop was instilled into both eyes of each experimental animal to achieve local anesthesia. The intraocular pressure reduction degree of each test compound administration group at each measurement time was calculated from the following calculation formula. Intraocular pressure reduction degree (mmHg)=|IOP (Ad−t)−IOP(Ad−0) Equation 2 IOP (Ad-t): Intraocular pressure of the eye into which the test compound was administered at t hours after administration of test compound IOP (Ad-0): Initial intraocular pressure of the eye into which the test compound was administered

Row | SMILES | Maximum intraocular pressure reduction degree [1] [mmHg] | Intraocular pressure reduction degree ([2]; 0.01% (w/v) test liquid) [mmHg] | further results
1 | Nc1nc(C#CCC2CCN(C(=O)Oc3ccc(F)cc3)CC2)nc2c1ncn2[C@@H]1O[C@H](C(=O)NC2CC2)[C@@H](O)[C@H]1O [Compound F, 4-{3-[6-amino-9-((2R,3R,4S,5S)-5-cyclopropylcarbamoyl-3,4-dihydroxytetrahydrofuran-2-yl)-9H-purin-2-yl]-2-propynyl}-piperidine-1-carboxylic acid 4-fluorophenyl ester] | 2.7 | – | –
2 | Nc1nc(C#CCC2CCN(C(=O)OC3CCC3)CC2)nc2c1ncn2[C@@H]1O[C@H](C(=O)NC2CC2)[C@@H](O)[C@H]1O [Compound J, 4-{3-[6-amino-9-((2R,3R,4S,5S)-5-cyclopropylcarbamoyl-3,4-dihydroxytetrahydrofuran-2-yl)-9H-purin-2-yl]-2-propynyl}-piperidine-1-carboxylic acid cyclobutyl ester] | – | 4.1 | intraocular pressure lowering action (in words) [2]: significantly higher intraocular pressure lowering action among the present compounds
3 | CCNC(=O)[C@H]1O[C@@H](n2cnc3c(N)nc(C#CCC4CCN(C(=O)OC(C)C)CC4)nc32)[C@H](O)[C@@H]1O [Compound E, 4-{3-[6-amino-9-((2R,3R,4S,5S)-5-ethylcarbamoyl-3,4-dihydroxytetrahydrofuran-2-yl)-9H-purin-2-yl]-2-propynyl}-piperidine-1-carboxylic acid isopropyl ester] | 2.9 | 2.6 | –
4 | COc1ccccc1OC(=O)N1CCC(CC#Cc2nc(N)c3ncn([C@@H]4O[C@H](C(=O)NC5CC5)[C@@H](O)[C@H]4O)c3n2)CC1 [Compound G, 4-{3-[6-amino-9-((2R,3R,4S,5S)-5-cyclopropylcarbamoyl-3,4-dihydroxytetrahydrofuran-2-yl)-9H-purin-2-yl]-2-propynyl}-piperidine-1-carboxylic acid 2-methoxyphenyl ester] | 2.7 | – | –
5 | COC(=O)N1CCC(CC#Cc2nc(N)c3ncn([C@@H]4O[C@H](C(=O)NC5CC5)[C@@H](O)[C@H]4O)c3n2)CC1 [Compound A, 4-{3-[6-amino-9-((2R,3R,4S,5S)-5-cyclopropylcarbamoyl-3,4-dihydroxytetrahydrofuran-2-yl)-9H-purin-2-yl]-2-propynyl}-piperidine-1-carboxylic acid methyl ester] | 4.9 | – | intraocular pressure lowering action (in words) ([1]; 0.1% (w/v) instilled twice a day for 7 days): significantly higher intraocular pressure lowering action among the present compounds; lowering of trough intraocular pressure by repeated instillation (in words) ([1]; 0.1% (w/v) repeated instillation (BID)): exhibited a high lowering action; trough intraocular pressure value on day 7, lower than that in the vehicle administration group ([1]; 0.1% (w/v) repeated instillation (BID) for 7 days, difference from vehicle group): 1.0 mmHg; Intraocular pressure reduction degree ([2]; 0.003% (w/v) test liquid): 3.8 mmHg; intraocular pressure lowering action (in words) [2]: significantly higher intraocular pressure lowering action among the present compounds
6 | CCNC(=O)[C@H]1O[C@@H](n2cnc3c(N)nc(C#CCC4CCN(C(=O)OCC)CC4)nc32)[C@H](O)[C@@H]1O [Compound D, 4-{3-[6-amino-9-((2R,3R,4S,5S)-5-ethylcarbamoyl-3,4-dihydroxytetrahydrofuran-2-yl)-9H-purin-2-yl]-2-propynyl}-piperidine-1-carboxylic acid ethyl ester] | 2.9 | – | –
7 | CCNC(=O)[C@H]1O[C@@H](n2cnc3c(N)nc(C#CCC4CCN(C(=O)OC)CC4)nc32)[C@H](O)[C@@H]1O [Compound C, 4-{3-[6-amino-9-((2R,3R,4S,5S)-5-ethylcarbamoyl-3,4-dihydroxytetrahydrofuran-2-yl)-9H-purin-2-yl]-2-propynyl}-piperidine-1-carboxylic acid methyl ester] | 2.7 | 2.8 | –
8 | CCNC(=O)[C@H]1O[C@@H](n2cnc3c(N)nc(C#CCC4CCC(C(=O)OC)CC4)nc32)[C@H](O)[C@@H]1O (stereo partly drawn) [Compound B, 4-{3-[6-amino-9-((2R,3R,4S,5S)-5-ethylcarbamoyl-3,4-dihydroxytetrahydrofuran-2-yl)-9H-purin-2-yl]-2-propynyl}-cyclohexane-1-carboxylic acid methyl ester] | 2.2 | – | Intraocular pressure reduction degree ([2]; 0.2% (w/v) test liquid (pH 7)): 2.1 mmHg
9 | COc1ccc(OC(=O)N2CCC(CC#Cc3nc(N)c4ncn([C@@H]5O[C@H](C(=O)NC6CC6)[C@@H](O)[C@H]5O)c4n3)CC2)cc1 [Compound H, 4-{3-[6-amino-9-((2R,3R,4S,5S)-5-cyclopropylcarbamoyl-3,4-dihydroxytetrahydrofuran-2-yl)-9H-purin-2-yl]-2-propynyl}-piperidine-1-carboxylic acid 4-methoxyphenyl ester] | 2.3 | – | –
10 | Nc1nc(C#CCC2CCN(C(=O)Oc3ccc(F)c(F)c3)CC2)nc2c1ncn2[C@@H]1O[C@H](C(=O)NC2CC2)[C@@H](O)[C@H]1O [Compound I, 4-{3-[6-amino-9-((2R,3R,4S,5S)-5-cyclopropylcarbamoyl-3,4-dihydroxytetrahydrofuran-2-yl)-9H-purin-2-yl]-2-propynyl}-piperidine-1-carboxylic acid 3,4-difluorophenyl ester] | 1.8 | 1.7 | –
